Results on six compounds are retold here after patent US20060240095A1, “Pharmaceutical composition comprising a combination of metformin and a statin” (priority 2003, published 2006).

Where two headings read alike, the source gives them in different places. Bounds are passed on as bounds.

One series has as its system ZUCKER fa/fa rats. The series can be described thus: Serum biomarkers in Zucker obese (fa/fa) rats, simvastatin, metformin and combination per os for 5 days. The settings on record: oral.
Series [1] concerns C57BL/Ks J Rj-db (db/db) mice. Put plainly: Serum biomarkers in male db/db mice, simvastatin, metformin and combination per os for 5 days. It counts as in vivo, mouse. The conditions noted are these: oral once daily. As for the experimental part:
Male 12 weeks old C57BL/Ks J Rj-db (db/db) mice (Janvier, France), weighing in the target range of 30 to 50 g, were used in the study. They were housed 5 per cage in a temperature (19.5-24.5° C.) and relative humidity (45-65%) controlled room with a 12-h light/dark cycle, with ad libitum access to filtered tap-water and irradiated pelleted laboratory chow (ref. A04, SAFE, France) throughout the study. After acclimatization, they were randomized into groups of 10 according to homogeneous glycaemia:
Group 2: Metformin 150 mg/kg
The mice were given the treatment orally once daily for 5 consecutive days at constant time.

For series [2] the following is noted: cited from earlier work.
The conditions of series [3]: cited from earlier work. This is another data set of the same source.
Series [4] relates to Zucker obese (fa/fa) rats. The conditions noted are these: serum, lovastatin 1 mg/kg/day and/or metformin 50 mg/kg twice a day p.o.
The conditions of series [5]: pH of 7.0; cited from earlier work.
[6] abbreviates: T0 (three days before treatment), simvastatin 0.5 mg/kg and/or metformin 50 mg/kg twice a day.
Where [7] appears, read: T0 (three days before treatment), simvastatin 1 mg/kg alone or with metformin 50 mg/kg twice a day.
Where [8] appears, read: T5 (five days after beginning of treatment), simvastatin 0.5 mg/kg and/or metformin 50 mg/kg twice a day.
Where [9] appears, read: T5 (five days after beginning of treatment), simvastatin 1 mg/kg alone or with metformin 50 mg/kg twice a day.
The mark [10] stands for this setting: T0 (three days before treatment), metformin 150 mg/kg and/or simvastatin 30 mg/kg.
[11] abbreviates: T0 (three days before treatment), simvastatin 300 mg/kg alone or with metformin 150 mg/kg.
The mark [12] stands for this setting: T0 (three days before treatment), simvastatin alone or with metformin 150 mg/kg.
The mark [13] stands for this setting: T5 (five days after beginning of treatment), metformin 150 mg/kg and/or simvastatin 30 mg/kg.
Setting [14] is: T5 (five days after beginning of treatment), simvastatin 300 mg/kg alone or with metformin 150 mg/kg.
The mark [15] stands for this setting: T5 (five days after beginning of treatment), simvastatin alone or with metformin 150 mg/kg.
Setting [16] is: water (distilled water for atorvastatin), in words.
Where [17] appears, read: T0 (three days before beginning of treatment).
[18] abbreviates: T5 (five days after beginning of treatment).

`CCC(C)(C)C(=O)O[C@H]1C[C@@H](C)C=C2C=C[C@H](C)[C@H](CC[C@@H]3C[C@@H](O)CC(=O)O3)[C@H]21` [Simvastatin]: the Glucose with ZUCKER fa/fa rats (setting [6]) was found to be 6.63 mM; with ZUCKER fa/fa rats (setting [7]), 7.08 mM; in the series with ZUCKER fa/fa rats (setting [8]), 9.44 mM; in the series on ZUCKER fa/fa rats (setting [9]), 8.35 mM; in series [1] (setting [10]) it was 36.27 mM; in series [1] (setting [11]) it was 36.91 mM. Also, the values for the Glucose in series [1] (setting [13]) and in series [1] (setting [14]) were 25.95 mM and 21.18 mM, respectively. Besides, the “HDL C” value was determined as 2.32 mM with ZUCKER fa/fa rats (setting [6]), 2.34 mM with ZUCKER fa/fa rats (setting [7]), 2.32 mM in the series with ZUCKER fa/fa rats (setting [8]) and 2.43 mM in the series with ZUCKER fa/fa rats (setting [9]). In addition, the Insulin in the series on ZUCKER fa/fa rats (setting [6]) stood at 0.55 nM; with ZUCKER fa/fa rats (setting [7]), 0.63 nM; in the series on ZUCKER fa/fa rats (setting [8]) it was 0.76 nM; with ZUCKER fa/fa rats (setting [9]), 0.67 nM; in series [1] (setting [10]), 4.60 nM; in series [1] (setting [12]), 4.86 nM. For the same compound, the Insulin was 2.74 nM in series [1] (setting [13]) and 2.37 nM in series [1] (setting [15]). Also, the “Total Cholesterol” value with ZUCKER fa/fa rats (setting [6]) came to 2.46 mM; in the series on ZUCKER fa/fa rats (setting [7]), 2.48 mM; in the series on ZUCKER fa/fa rats (setting [8]), 2.46 mM; in the series with ZUCKER fa/fa rats (setting [9]) it was 2.60 mM; in series [1] (setting [10]), 2.96 mM; in series [1] (setting [11]), 2.95 mM. Besides, the “Total Cholesterol” value in series [1] (setting [13]) was 3.33 mM; in series [1] (setting [14]), 2.87 mM. Besides, the Triglycerides is on record as 4.61 mM in the series with ZUCKER fa/fa rats (setting [6]); 4.67 mM in the series on ZUCKER fa/fa rats (setting [7]); 5.23 mM in the series on ZUCKER fa/fa rats (setting [8]); 5.89 mM in the series on ZUCKER fa/fa rats (setting [9]); 1.34 mM in series [1] (setting [10]); 1.44 mM in series [1] (setting [12]). Also, the Triglycerides in series [1] (setting [13]) is recorded as 1.49 mM; in series [1] (setting [15]) it was 0.78 mM. Moreover, the NEFA worked out at 0.646 mM in series [1] (setting [10]), 0.639 mM in series [1] (setting [12]), 0.897 mM in series [1] (setting [13]) and 0.785 mM in series [1] (setting [15]).
For `CC(C)n1c(/C=C/C(O)CC(O)CC(=O)O)c(-c2ccc(F)cc2)c2ccccc21` (stereo not drawn) [Fluvastatin], the “time to peak concentrations” value in series [2] (following oral administration) is “less than 1 hour”. Also, the solubility in water entry in series [3] (setting [16]) is on record as “soluble”.
For `COCc1c(C(C)C)nc(C(C)C)c(/C=C/[C@@H](O)C[C@@H](O)CC(=O)O)c1-c1ccc(F)cc1` [Cerivastatin], in series [2] (oral administration with food), the “effect of food on absorption” value is listed as “not sensitive to a food effect”. In addition, in series [3] (setting [16]), the solubility in water result is listed as “soluble”.
On to `CC[C@H](C)C(=O)O[C@H]1C[C@@H](C)C=C2C=C[C@H](C)[C@H](CC[C@@H]3C[C@@H](O)CC(=O)O3)[C@H]21` [Lovastatin], for which, in series [4] (setting [17]), the Glucose came out at 7.88 mM, the “HDL C” value is recorded as 2.00 mM, the Insulin came to 0.35 nM and the “Total Cholesterol” value is reported as 2.38 mM. In addition, the Triglycerides in series [4] (setting [17]) is given as 4.18 mM. Besides, in series [4] (setting [18]), the Glucose is on record as 8.21 mM, the “HDL C” value is given as 2.16 mM, the Insulin amounted to 0.39 nM and the “Total Cholesterol” value is 2.54 mM. Moreover, the Triglycerides in series [4] (setting [18]) worked out at 4.79 mM. For the same compound, the solubility in water entry in series [3] (setting [16]) is reported as “insoluble”.
For `CN(C)C(=N)N=C(N)N` [Metformin], in series [4] (setting [17]), the Glucose came to 8.27 mM, the “HDL C” value is reported as 2.08 mM, the Insulin worked out at 0.34 nM and the “Total Cholesterol” value is given as 2.55 mM. Besides, the Triglycerides in series [4] (setting [17]) was 4.08 mM. Moreover, in series [4] (setting [18]), the Glucose is 7.73 mM, the “HDL C” value was found to be 2.25 mM, the Insulin came to 0.38 nM and the “Total Cholesterol” value is reported as 2.72 mM. In series [4] (setting [18]), the Triglycerides is given as 5.17 mM. Also, in the series on ZUCKER fa/fa rats (setting [6]), the Glucose is listed as 6.69 mM, the “HDL C” value was 2.30 mM, the Insulin was 0.63 nM and the “Total Cholesterol” value came out at 2.47 mM. Also, in the series on ZUCKER fa/fa rats (setting [6]), the Triglycerides is given as 4.18 mM. For the same compound, in the series with ZUCKER fa/fa rats (setting [8]), the Glucose is recorded as 9.23 mM, the “HDL C” value turned out to be 2.16 mM, the Insulin is on record as 0.71 nM and the “Total Cholesterol” value is 2.32 mM. The Triglycerides in the series with ZUCKER fa/fa rats (setting [8]) turned out to be 5.12 mM. Also, in series [1] (setting [10]), the Glucose is on record as 37.00 mM, the Insulin came to 4.60 nM, the NEFA was determined as 0.654 mM and the “Total Cholesterol” value came out at 3.07 mM. Besides, the Triglycerides in series [1] (setting [10]) is recorded as 1.30 mM. In addition, in series [1] (setting [13]), the Glucose is on record as 23.03 mM, the Insulin amounted to 2.82 nM, the NEFA is listed as 0.798 mM and the “Total Cholesterol” value is on record as 3.63 mM. Also, the Triglycerides in series [1] (setting [13]) came out at 1.34 mM.
For the compound `CC[C@H](C)C(=O)O[C@H]1C[C@H](O)C=C2C=C[C@H](C)[C@H](CC[C@@H](O)C[C@@H](O)CC(=O)O)[C@H]21` [Pravastatin], the “partition coefficient (octanol/water)” value in series [5] is on record as 0.59. The solubility in water in series [3] (methanol and water) is given as > 300 mg/mL.
